# Data as given in patent US8765779B2, “Tricyclic derivatives and their pharmaceutical use and compositions” (Cephalon, Inc., priority 2009, dated 2014).
# Where a name gives a salt, the structure may show the parent alone.
# Biological target: T1, human 5-HT6 receptor (Homo sapiens, UniProt P50406)
# T1 construct: host or cells: CHO-K1 cells, stably transfected; membranes prepared in house
# Experiment: Human 5-HT6 Receptor Binding Assay ([3H]LSD displacement, scintillation beads)
# Conditions: membranes of CHO-K1 cells with recombinant human 5-HT6, 4 nM [3H]LSD; Table 1, class symbols; read-out: h5-HT6 (Ki)
# T1 sequence (P50406 whole entry): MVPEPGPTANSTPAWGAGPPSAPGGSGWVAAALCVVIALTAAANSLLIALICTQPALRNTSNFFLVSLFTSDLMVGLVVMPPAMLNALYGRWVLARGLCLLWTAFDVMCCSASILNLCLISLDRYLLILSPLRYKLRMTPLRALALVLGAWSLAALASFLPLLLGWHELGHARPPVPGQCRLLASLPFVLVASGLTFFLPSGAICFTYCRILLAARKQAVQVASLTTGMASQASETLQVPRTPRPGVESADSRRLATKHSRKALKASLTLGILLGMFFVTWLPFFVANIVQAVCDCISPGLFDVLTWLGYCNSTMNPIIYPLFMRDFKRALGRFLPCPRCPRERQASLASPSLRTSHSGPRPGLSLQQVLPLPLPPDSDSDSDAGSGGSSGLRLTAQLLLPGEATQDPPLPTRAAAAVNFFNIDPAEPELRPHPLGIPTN
row,Molecule,Ki [nM]
1,CN1CCC2c3ccc(OS(=O)(=O)c4ccc(Cl)cc4)cc3OC2C1 (stereo not drawn) [Example 799],500 to 1000
2,N#Cc1ccc(COc2cccc(S(=O)(=O)c3ccc4c(c3)OC3CNCCC43)c2)cc1 (stereo not drawn) [Example 551],< 500
3,O=S(=O)(c1ccc2c3c(oc2c1)CNCC3)c1cccc(F)c1F [Example 432],< 500
4,CC12CCNCC1Oc1cc(S(=O)(=O)c3cccc(C(F)(F)F)c3)ccc12 (stereo not drawn) [Example 357],< 500
5,O=S(=O)(Oc1ccc2c(c1)OC1CNCCC21)c1csc(C(F)(F)F)c1-c1ccccc1 (stereo not drawn) [Example 686],< 500
6,CC(C)Oc1ncccc1S(=O)(=O)c1ccc2oc3c(c2c1)CCNC3 [Example 449],< 500
7,"CC1(C)CNC2(CCOCC2)c2oc3cc(S(=O)(=O)c4cccc(F)c4)ccc3c21 [Example 2, 7-[(3-fluorophenyl)sulfonyl]-4,4-dimethyl-2′,3,3′,4,5′,6′-hexahydro-2H-spiro[1-benzofuro[2,3-c]pyridine-1,4′-pyran]]",< 500
8,CC1(C)NCCc2c1oc1cc(S(=O)(=O)c3ccc(F)c(F)c3)ccc21 [Example 290],< 500
9,N#Cc1ccc(S(=O)(=O)c2ccc3c(c2)OC2CNCCC32)cc1 (stereo not drawn) [Example 139],> 1000
10,CC12CCNCC1Oc1cc(S(=O)(=O)c3cc[nH]c(=O)c3)ccc12 (stereo not drawn) [Example 428],> 1000
11,O=S(=O)(c1ccc2c(c1)C1CCNCC1O2)c1ccc2ccccc2c1 (stereo not drawn) [Example 175],< 500
12,O=S(=O)(c1cccc(F)c1)c1ccc2c3c(oc2c1)C(C(F)(F)F)NCC3 (stereo not drawn) [Example 510],< 500
13,O=S(=O)(c1cc(F)cc(Cl)c1)c1ccc2c(c1)OC1CNCCC21 (stereo not drawn) [Example 163],< 500
14,O=S(=O)(c1ccc2c3c(oc2c1)CNCC3)c1cccc2cccnc12 [Example 346],< 500
15,O=S(=O)(c1ccc2c(c1)C1CCNCC1O2)N1CCC(c2ccccc2)CC1 (stereo not drawn) [Example 861],500 to 1000
16,CC12CCN(CCc3ccccc3)CC1Oc1ccc(OS(=O)(=O)Cc3ccccc3)cc12 (stereo not drawn) [Example 811],> 1000
17,O=S(=O)(c1ccc2c3c(oc2c1)CNCC3)c1cc(F)ccc1F [Example 223],< 500
18,O=S(=O)(c1cc(F)cc(Cl)c1)c1ccc2c3c(oc2c1)CNCC3 [Example 207],< 500
19,CC12CCNCC1Oc1ccc(OS(=O)(=O)Cc3ccc(F)cc3)cc12 (stereo not drawn) [Example 790],> 1000
20,O=S(=O)(CCc1ccccc1)Oc1ccc2c(c1)C1CCNCC1O2 (stereo not drawn) [Example 755],> 1000
21,"CC1OCCC12NCCc1c2oc2cc(S(=O)(=O)c3cccc(F)c3)ccc12 (single isomer, unassigned) [Example 57, 7-[(3-Fluorophenyl)sulfonyl]-2′-methyl-3,4,4′,5′-tetrahydro-2H-spiro[1-benzofuro[2,3-c]pyridine-1,3′-furan]]",< 500
22,"O=S(=O)(c1cccc(F)c1)c1ccc2c3c(oc2c1)C1(CCOCC1F)NCC3 (single isomer, unassigned) [Example 54, 3′-Fluoro-7-[(3-fluorophenyl)sulfonyl]-2′,3,3′,4,5′,6′-hexahydro-2H-spiro[1-benzofuro[2,3-c]pyridine-1,4′-pyran]]",< 500
23,O=S(=O)(c1ccc(F)c(Cl)c1)c1ccc2c(c1)OC1CNCCC21 (stereo not drawn) [Example 127],< 500
24,COc1cc(F)cc(S(=O)(=O)c2ccc3c(c2)OC2CNCCC32)c1 (stereo not drawn) [Example 407],< 500

row,Molecule,Ki [nM]
1,"CC(C)Oc1cccc(S(=O)(=O)c2ccc3c4c(oc3c2)C2(CCOCC2)NCC4)c1 [Example 44, 7-{[3-(propan-2-yloxy)phenyl]sulfonyl}-2′,3,3′,4,5′,6′-hexahydro-2H-spiro[1-benzofuro[2,3-c]pyridine-1,4′-pyran]]",< 500
2,"COCC1(COC)NCCc2c1oc1cc(S(=O)(=O)c3cccc(F)c3)ccc21 [Example 39, 7-[(3-fluorophenyl)sulfonyl]-1,1-bis(methoxymethyl)-1,2,3,4-tetrahydro[1]benzofuro[2,3-c]pyridine]",< 500
3,Cc1cccc(S(=O)(=O)Oc2ccc3c(c2)OC2CNCCC32)c1 (stereo not drawn) [Example 641],< 500
4,CN(C)C(=O)c1c(F)cccc1S(=O)(=O)c1ccc2c3c(oc2c1)CNCC3 [Example 479],> 1000
5,"[O-][S+](c1cccc(F)c1)c1ccc2c(c1)OC1CNCCC21 (stereo not drawn) [Example 625, 7-[(3-Fluorophenyl)sulfinyl]-1,2,3,4,4a,9a-hexahydro[1]benzofuro[2,3-c]pyridine trifluoroacetic acid salt]",< 500
6,Cc1ccc(C)c(S(=O)(=O)Oc2ccc3c(c2)C2CCNCC2O3)c1 (stereo not drawn) [Example 704],< 500
7,"O=S(=O)(c1cccc(OC(F)(F)F)c1)c1ccc2oc3c(c2c1)CCNC3 [Example 270, 6-{[3-(trifluoromethoxy)phenyl]sulfo-nyl}-1,2,3,4-tetrahydro[1]benzofuro[2,3-c]pyridine]",< 500
8,O=S(=O)(c1ccc(F)cc1)c1ccc2oc3c(c2c1)CCNC3 [Example 264],< 500
9,O=S(=O)(c1cccc(Cl)c1)c1ccc2c(c1)OC1CNCCC21 (stereo not drawn) [Example 112],< 500
10,O=S(=O)(c1ccc2c(c1)OC1CNCCC21)c1ccccc1Cl (stereo not drawn) [Example 113],< 500
11,O=S(=O)(Oc1ccc2c(c1)C1CCNCC1O2)c1cccc(C(F)(F)F)c1 (stereo not drawn) [Example 737],< 500
12,O=S(=O)(c1cccnc1)c1ccc2c3c(oc2c1)CNCC3 [Example 438],< 500
13,COc1ccc(S(=O)(=O)c2ccc3c4c(oc3c2)C(C)NCC4)cc1F (stereo not drawn) [Example 236],< 500
14,COc1ccc(S(=O)(=O)c2ccc3oc4c(c3c2)CCNC4C)cc1F (stereo not drawn) [Example 285],> 1000
15,"CN(C)C(=O)c1cccc(S(=O)(=O)c2ccc3c4c(oc3c2)CNCC4)c1 [Example 474, N,N-Dimethyl-3-(1,2,3,4-tetrahydro[1]benzofuro[2,3-c]pyridin-7-ylsulfonyl)benzamide hydrochloride]",> 1000
16,O=S(=O)(c1ccc(Oc2ccccc2)cc1)c1ccc2c(c1)C1CCNCC1O2 (stereo not drawn) [Example 173],> 1000
17,O=S(=O)(c1cccc(F)c1)c1ccc2c(c1)C1CCNCC1O2 (stereo not drawn) [Example 168],500 to 1000
18,Cc1c(Cl)cccc1S(=O)(=O)Oc1ccc2c(c1)C1(C)CCNCC1O2 (stereo not drawn) [Example 767],> 1000
19,O=S(=O)(c1cccc(C(F)(F)F)c1)c1ccc2oc3c(c2c1)CCNC3 [Example 239],< 500
20,COc1c(F)cc(F)cc1S(=O)(=O)c1ccc2c(c1)OC1CNCCC21 (stereo not drawn) [Example 463],< 500
21,"7-[(3,5-Difluorophenyl)sulfonyl]-2′,3,3′,4,4a,5′,6′,9a-octahydro-2H-spiro[1-benzofuro[2,3-c]pyridine-1,4′-pyran]hydrochloride [Example 623]",> 1000
22,COC(=O)c1cccc(S(=O)(=O)c2ccc3oc4c(c3c2)CCNC4)c1 [Example 269],500 to 1000
23,O=S(=O)(c1ccc2oc3c(c2c1)CCNC3)c1ccccc1Cl [Example 276],< 500
24,Cc1ccc(S(=O)(=O)Oc2ccc3c(c2)C2CCNCC2O3)cc1Cl (stereo not drawn) [Example 719],< 500

row,Molecule,Ki [nM]
1,O=S(=O)(Oc1ccc2c(c1)C1CCNCC1O2)c1cc2ccccc2o1 (stereo not drawn) [Example 713],< 500
2,O=S(=O)(c1ccc(F)cc1)c1ccc2c(c1)OC1CNCCC21 (stereo not drawn) [Example 134],< 500
3,"O=S(=O)(c1ccccc1)c1ccc2c(c1)C1CCNCC1O2 (stereo not drawn) [Example 181, 6-(phenylsulfonyl)-1,2,3,4,4a,9a-hexahydro[1]benzofuro[2,3-c]pyridine]",> 1000
4,CCOc1cc(F)cc(S(=O)(=O)c2ccc3c(c2)OC2CNCCC32C)c1 (stereo not drawn) [Example 426],< 500
5,Cc1cccc(S(=O)(=O)c2ccc3c(c2)OC2CNCCC32)c1 (stereo not drawn) [Example 141],< 500
6,COc1ccc(S(=O)(=O)c2ccc3c(c2)OC2CNCCC32)cc1OC (stereo not drawn) [Example 115],> 1000
7,CC(C)C1NCCc2c1oc1cc(S(=O)(=O)c3cccc(Cl)c3)ccc21 (stereo not drawn) [Example 505],< 500
8,"CC1(C)NCCc2c1oc1cc(S(=O)(=O)c3cccc(OC(F)(F)F)c3)ccc21 [Example 291, 1,1-dimethyl-7-{[3-(trifluoromethoxy)phenyl]sulfo-nyl}-1,2,3,4-tetrahydro[1]benzofuro[2,3-c]pyridine]",< 500
9,O=S(=O)(c1ccccc1)c1ccc2c(c1)OC1CN(C3CCCC3)CCC21 (stereo not drawn) [Example 609],< 500
10,O=S(=O)(c1ccc2c(c1)OC1CNCCC21)c1cccc(Cl)c1Cl (stereo not drawn) [Example 123],< 500
11,O=S(=O)(Oc1ccc2c(c1)OC1CNCCC21)c1cccc(C(F)(F)F)c1 (stereo not drawn) [Example 675],< 500
12,O=S(=O)(c1cc(F)cc(F)c1)c1ccc2c(c1)OC1CNCCC21 (stereo not drawn) [Example 131],< 500
13,O=S(=O)(Oc1ccc2c(c1)OC1CNCCC21)c1ccccc1Cl (stereo not drawn) [Example 654],< 500
14,"CC(=O)N(C)CCC1NCCc2c1oc1ccc(S(=O)(=O)c3cccc(F)c3)cc21 (stereo not drawn) [Example 534, N-(2-{6-[(3-Fluorophenyl)sulfonyl]-1,2,3,4-tetrahydro[1]benzofuro[2,3-c]pyridin-1-yl}ethyl)-N-methylacetamide]",< 500
15,O=S(=O)(c1cccc(C(F)(F)F)c1)c1ccc2c3c(oc2c1)C1(CCOC1)NCC3 (stereo not drawn) [Example 307],< 500
16,O=S(=O)(c1ccc(F)c(F)c1)c1ccc2oc3c(c2c1)CCNC3 [Example 240],< 500
17,COc1ccc(S(=O)(=O)c2ccc3c4c(oc3c2)C(C)(C)NCC4)cc1F [Example 288],< 500
18,Cc1ccc(S(=O)(=O)Oc2ccc3c(c2)C2CCNCC2O3)cc1F (stereo not drawn) [Example 709],500 to 1000
19,O=S(=O)(Oc1ccc2c(c1)C1CCNCC1O2)c1ccc2c(c1)OCCO2 (stereo not drawn) [Example 729],< 500
20,[O-][S+](c1ccc2oc3c(c2c1)CCNC3)c1cccnc1Cl (stereo not drawn) [Example 445],> 1000
21,O=S(=O)(c1ccc(Oc2ccccc2)cc1)c1ccc2c(c1)OC1CNCCC21 (stereo not drawn) [Example 116],< 500
22,O=S(=O)(Oc1ccc2c(c1)C1CCNCC1O2)c1ccccc1Cl (stereo not drawn) [Example 711],< 500
23,CC(C)S(=O)(=O)c1ccc2oc3c(c2c1)CCNC3 [Example 281],> 1000
24,O=S(=O)(Oc1ccc2c(c1)C1CCNCC1O2)c1cccc(Cl)c1Cl (stereo not drawn) [Example 740],< 500
